Laboratory results reported in patent publication US8119614B2, “Substitution derivatives of N6-benzyladenosine, methods of their preparation, their use for preparation of drugs, cosmetic preparations and growth regulators, pharmaceutical preparations, cosmetic preparations and growth regulators containing these compounds” (Ustav Experimentalni Botaniky Akademie Ved Ceske Republiky, priority 2002, dated 2012).

What was measured:
Human lymphocytes = experiment: Immunosuppressive activity: concanavalin A induced lymphocyte proliferation, [^3H]-TdR incorporation; format: cell-based; settings: 72 hours, read-out: Human lymphocytes ED50
Method: Human heparinized peripheral blood was obtained from healthy volunteers by cubital vein punction. The blood was diluted in PBS (1:3) and mononuclear cells were separated by centrifugation in Ficoll-Hypaque density gradient (Pharmacia, 1.077 g/ml) at 2200 rpm for 30 minutes. Following centrifugation, lymphocytes were washed in PBS and resuspended in cell culture medium (RMPI 1640, 2 mM glutamine, 100 U/ml penicillin, 100 μg/ml streptomycin, 10% fetal calf serum and sodium bicarbonate).
The cells were diluted at target density of 1,100,000 cells/ml were added by pipette (180 μl) into 96/well microtiter plates. Four-fold dilutions of the intended test concentration were added at time zero in 20 μl aliquots to the microtiter plate wells. Usually, test compound was evaluated at six 4-fold dilutions. In routine testing, the highest well concentration was 266.7 μM. All drug concentrations were examined in duplicates. All wells with exception of unstimulated controls were activated with 50 μl of concanavalin A (25 μg/ml). Incubations of cells with test compounds lasted for 72 hours at 37° C., in 5% CO2 atmosphere and 100% humidity. At the end of incubation period, the cells were assayed by using the [^3H]-TdR:
Cell cultures were incubated with 0.5 μCi (20 μl of stock solution 500 μCi/ml) per well for 6 hours at 37° C. and 5% CO2. The automated cell harvester was used to lyse cells in water and adsorb the DNA onto glass-fiber filters in the format of microtiter plate. The DNA incorporated [^3H]-TdR was retained on the filter while unincorporated material passes through. The filters were dried at room temperature overnight, sealed into a sample bag with 10-12 ml of scintillant. The amount of [^3H]-TdR present in each filter (in cpm) was determined by scintillation counting in a Betaplate liquid scintillation counter. The effective dose of immunosuppressant (ED) was calculated using the following equation: ED=(CCPMdrug exposed well/mean CCPMcontrol wells)×100%. The ED50 value, the drug concentration inhibiting proliferation of 50% of lymphocytes, was calculated from the obtained dose response curves.

[1] = test system: tobacco callus Nicotiana tabacum L. cv. Wisconsin 38; experiment: Growth of cytokinin-dependent tobacco callus; format: cell-based; settings: for Activity (%) [10^−5 mol · l^−1 BAP = 100%]: callus growth, at concentration with highest activity; for Concentration with highest activity: fresh callus weight after four weeks
glutamate kinase = experiment: Field studies: glutamate kinase activity in spring wheat; format: in vivo; design: tested at 1 µM (10^-6 M spray solution); settings: 6 days after the application, Control = 100.0
Method: Height of plants, leaf area, dry matter, development of vegetation opex—bases of future spike, and number of spikelets were monitored after germination in 14 day intervals, […]. From these primary data, values used in production physiology are derived, as leaf area index LAI, photosynthetic capacity LAD, tillering potential. Experiments with treatment of spring wheat crop (variety Sandra) are carried out on the field (area 10 m^2, four replicates) by spraying 1 litr of 10^−6 molar solution of tested compound (cytokinin) at the transition period from jointing stage to athesis stage (49 DC).
Glutamate kinase activity was determined 6 days after the application. This enzyme was selected because of good corelation of its activity changes and state of transport of endogenous substances (nutrients from roots, assimilates to cariopsis), respiration, energy (adenosintriphosphate) transfer, storage of nutrients, growth and developmental proceses, and also metabolism of proline, which is known from literature to play an important role in adaptation against stress (unsuitable stand, drought, hypersalinity, coldness) and also in regulation of both theoretical and real production (restriction of seed number reduction per spikelet). Enzyme glutamate kinase catalyses to glutamate conversion into γ glutamylphosphate, which is first step of proline biosynthesis from glutamate. Therefore, this enzyme is, as essential precursor of other plant metabolic pathways, marker of stress inhibition. It can be determined spectrofotometrically (Vasáková, 1980). For analysis, acetone powder is prepared from a sample by standard method, subsequently extracted by 0.05M potassium-phosphate buffer pH=7.2 and centrifugated. Glutamate kinase fraction is precipitated using crystalline ammonium sulfate and after dialysis, glutamate kinase activity is determined spectrophotometrically. Proline accumulation increased by stress corresponds as a “feedback” to glutamate kinase inhibition.

Compound	EC50 (Human lymphocytes) [µM]	Activity (%) [10^−5 mol · l^−1 BAP = 100%] [1] [%]	Concentration with highest activity [1]	GK % (glutamate kinase activity) (glutamate kinase) [%]
OC[C@H]1O[C@@H](n2cnc3c(NCc4ccccc4Cl)ncnc32)[C@H](O)[C@@H]1O [2-chlorobenzylamino, 6-(2-chlorobenzylamino)purine riboside]	8.4	93 ± 4	10^−6 mol · l^−1	–
OC[C@H]1O[C@@H](n2cnc3c(NCc4ccccc4F)ncnc32)[C@H](O)[C@@H]1O [2-fluorobenzylamino, 6-(2-fluorobenzylamino)purine riboside]	5.6	100 ± 9	10^−6 mol · l^−1	–
COc1cccc(CNc2ncnc3c2ncn3[C@@H]2O[C@H](CO)[C@@H](O)[C@H]2O)c1O [2-hydroxy-3-methoxybenzylamino, 6-(2-hydroxy-3-methoxybenzylamino)purine riboside]	1.4	–	–	–
COc1ccccc1CNc1ncnc2c1ncn2[C@@H]1O[C@H](CO)[C@@H](O)[C@H]1O [2-methoxybenzylamino, 6-(2-methoxybenzylamino)purine riboside]	–	108 ± 1	10^−5 mol · l^−1	–
Cc1ccccc1CNc1ncnc2c1ncn2[C@@H]1O[C@H](CO)[C@@H](O)[C@H]1O [2-methylbenzylamino, 6-(2-methylbenzylamino)purine riboside]	5.8	98 ± 4	10^−6 mol · l^−1	–
OC[C@H]1O[C@@H](n2cnc3c(NCc4ccc(Cl)c(Cl)c4)ncnc32)[C@H](O)[C@@H]1O [3,4-dichlorobenzylamino, 6-(3,4-dichlorobenzylamino)purine riboside]	–	–	–	114.2
OC[C@H]1O[C@@H](n2cnc3c(NCc4cccc(Br)c4)ncnc32)[C@H](O)[C@@H]1O [3-bromobenzylamino, 6-(3-bromobenzylamino)purine riboside]	–	82 ± 11	10^−6 mol · l^−1	116.6
OC[C@H]1O[C@@H](n2cnc3c(NCc4cccc(Cl)c4)ncnc32)[C@H](O)[C@@H]1O [3-chlorobenzylamino, 6-(3-chlorobenzylamino)purine riboside]	2.5	96 ± 5	10^−5 mol · l^−1	124.7
OC[C@H]1O[C@@H](n2cnc3c(NCc4cccc(F)c4)ncnc32)[C@H](O)[C@@H]1O [3-fluorobenzylamino, 6-(3-fluorobenzylamino)purine riboside]	7.1	91 ± 6	10^−5 mol · l^−1	–
COc1cccc(CNc2ncnc3c2ncn3[C@@H]2O[C@H](CO)[C@@H](O)[C@H]2O)c1 [3-methoxybenzylamino, 6-(3-methoxybenzylamino)purine riboside]	–	92 ± 1	10^−6 mol · l^−1	–
Cc1cccc(CNc2ncnc3c2ncn3[C@@H]2O[C@H](CO)[C@@H](O)[C@H]2O)c1 [3-methylbenzylamino, 6-(3-methylbenzylamino)purine riboside]	6.5	90 ± 2	10^−6 mol · l^−1	–
OC[C@H]1O[C@@H](n2cnc3c(NCc4ccc(Cl)cc4)ncnc32)[C@H](O)[C@@H]1O [4-chlorobenzylamino, 6-(4-chlorobenzylamino)purine riboside]	3.9	46 ± 14	10^−6 mol · l^−1	–
OC[C@H]1O[C@@H](n2cnc3c(NCc4ccc(F)cc4)ncnc32)[C@H](O)[C@@H]1O [4-fluorobenzylamino, 6-(4-fluorobenzylamino)purine riboside]	9.4	100 ± 6	10^−6 mol · l^−1	–
